Data: patent publication US10716797B2, “Steroid alkaloids and compositions and kits thereof” (priority 2013, dated 2020)
Entries after “also recorded” stand apart in the source; their conditions may differ.

Key:
[1] = system: Listeria monocytogenes (strain ATCC 13932); assay: Time-kill experiments, Listeria monocytogenes; format: cell-based
Description: Time-kill experiments were performed in order to determine whether the effect of test compounds or the combination with an aminoglycoside on Listeria monocytogenes (strain ATCC 13932) is bacteriostatic (prevents growth) or bactericidal (kills cells).
At several time points during growth at 35° C. (225 RPM), bacteria were sampled, serially diluted and plated on Brain Hearth Infusion agar (BHIA) for colony-forming unit (CFU) determinations (i.e., viable bacterial counts). Plates were incubated for 24 h at 35° C. It represents the results of three independent experiments.

[2] = system: S. aureus SCV strain hemB; assay: Murine lung infection (pneumonia) model; format: in vivo, mouse; details: mice; intratracheal, 4 h post-infection; lungs 24 h post-infection; hydrochloride
Description: Compound efficacy in a lung infection (pneumonia) model was evaluated as follow (Ragle et al, 2010; Mitchell et al, 2013): Mice (36) were challenged with an intra-tracheal injection of S. aureus SCV strain hemB (10^7 CFU) (10^7 CFU) (normal S. aureus could also have been used, mixed or not with P. aeruginosa for a co-infection). […] More particularly, 11 mice were untreated (Unrteated); 4 mice were treated with 10 μg of tomatidine (TO (10)); 4 mice were treated with 100 μg of tomatidine (TO (100)); 3 mice were treated with 10 μg of compound 14 (Compound 14 (10)); 8 mice were treated with 100 μg of compound 14 (Compound 14 (100)); and 6 mice were treated with 200 μg of compound 14 (Compound 14 (200)). Mice were euthanized 24 h post-infection. The lungs were recovered, homogenized, and bacterial CFU per g of tissue were determined by plating appropriate dilutions on Brain Hearth Infusion agar media (other media such as for example, mannitol salt agar for S. aureus or cetrimide plates for P. aeruginosa could be used).
Each dot represents the CFU per g of tissue for one mouse. The boxes represent the CFU data distribution, the first quartile, the median and the third quartile. Statistical differences (P<0.001) between CFU recovered from treated and untreated animals are shown by asterisks (non-parametric Kruskal-Wallis ANOVA with Dunn's post test).

[3] = system: S. aureus SCV strain NewbouldΔhemB; assay: MIC by microdilution against SCV strain; format: cell-based, Staphylococcus aureus
Description: Method. The minimal inhibitory concentrations (MICs), (i.e. lowest concentration of an antimicrobial that will inhibit the visible growth of a microorganism after incubation), of test compounds were determined against the normal or SCV strains of bacterial species from the Firmicutes phylum. Briefly, MICs were determined using the microdilution method in 96-well plates (Clinical and Laboratory Standards Institute (CLSI), 2011). Bacteria were inoculated at ˜10^5-10^6 CFU/mL and incubated at 35° C. for 20 h (normal strains) or 48 h (SCVs) in brain heart infusion (BHI) broth in order to allow SCVs to reach maximal growth as previously described (Mitchell et al., 2012). Then OD595 nm was read on a microplate reader. […] In this example the range of compound concentrations tested was 0.03 to 64 μg/ml using doubling increments. Strain Staphylococcus aureus NewbouldΔhemB (hemB) was also used in the experiments and is a laboratory-derived stable SCV created by the insertion of the macrolide resistance gene ermA in the hemB gene of this strain to create the SCV phenotype (defective electron transport chain and respiratory deficiency) through inactivation of hemin biosynthesis (Brouillette et al., 2004). […]

MRSA USA100 = assay: MIC by microdilution, alone or in combination, MRSA USA100; format: cell-based, Staphylococcus aureus; details: agent used alone
Description: Method. The minimal inhibitory concentrations (MICs), (i.e. lowest concentration of an antimicrobial that will inhibit the visible growth of a microorganism after incubation), of test compounds were determined against the normal or SCV strains of bacterial species from the Firmicutes phylum. Briefly, MICs were determined using the microdilution method in 96-well plates (Clinical and Laboratory Standards Institute (CLSI), 2011). Bacteria were inoculated at ˜10^5-10^6 CFU/mL and incubated at 35° C. for 20 h (normal strains) or 48 h (SCVs) in brain heart infusion (BHI) broth in order to allow SCVs to reach maximal growth as previously described (Mitchell et al., 2012). Then OD595 nm was read on a microplate reader. […] In this example the range of compound concentrations tested was 0.03 to 64 μg/ml using doubling increments. Strain Staphylococcus aureus NewbouldΔhemB (hemB) was also used in the experiments and is a laboratory-derived stable SCV created by the insertion of the macrolide resistance gene ermA in the hemB gene of this strain to create the SCV phenotype (defective electron transport chain and respiratory deficiency) through inactivation of hemin biosynthesis (Brouillette et al., 2004).
In the present Example the range of compound concentrations tested, using doubling increments, was 0.03 to 64 μg/ml for Compound 14 and up to 1024 μg/ml for gentamicin (GEN), kanamycin (KAN) and cefalexin (CEF) when these compounds were used alone. Compound 14 (Cpd 14) was used at a fixed concentration of 4 μg/ml when added to other antibiotics. The combination of CEF and KAN was used in a 3:2 ratio and doubling increments were used to test the antibacterial activity against MRSA in the absence or presence of Compound 14.

[4] = system: Staphylococcus aureus strain SH1000 grown in biofilms; assay: Calgary biofilm device, CFU and crystal violet; format: cell-based; details: hydrochloride
Description: The bactericidal activity of tomatidine and Compound 14 in combination with gentamicin against Staphylococcus aureus was evaluated against this bacterium grown in a biofilm. Biofilms confer to bacteria protection from host defenses as well as tolerance to some antibiotics that target active and dividing cells. In addition, biofilms also provide protection against hydrodynamic shear forces, and biofilm infections are generally difficult to eradicate even in hosts with intact immune system (Costerton et al, 1999; Davies 2003).
Staphylococcus aureus strain SH1000 of the normal phenotype (i.e., non-SCV) was used for its high ability to produce biofilms. The Calgary biofilm device (96-well plates with peg lids) was used to grow S. aureus in biofilms (Ceri et al, 1999) and to test the bactericidal activity of compounds (Moskowitz et al, 2004). Briefly, S. aureus SH1000 was grown in the Calgary biofilm device for 24 h at 35° C. until the biofilm forms on the pegs. The pegs were then washed, the medium was removed and the peg lids were dipped in fresh medium containing various amounts of test compounds. […] Replicate experiments were performed in order to quantify the residual amount of biofilm on pegs by crystal violet staining and spectrophotometry (absorbance [OD] at 562 nm).

[5] = compound tested alone, strain NewbouldΔhemB

Substance: 3-(N-aminoethyl)-aminotomatidine hydrochloride [Compound 14]
- effect in time-kill in combination with gentamicin ([1]; 8 μg/ml with 2 μg/ml gentamicin): important bactericidal synergy
- effect on growth in time-kill (CFU) ([1]; used alone at 8 μg/ml): reduces the growth
- bacterial load in lungs (CFU per g of tissue) [2]: significantly reduce the bacterial load; also recorded: superior to tomatidine hydrochloride salt
- MIC ([3]; S. aureus hemB (SCV strain NewbouldΔhemB)): 0.5 µg/mL
- Activity of the compounds against the SCV strain (class) [3, 5]: Moderate (MIC = 0.5-4 μg/mL: moderate activity)
- MIC vs SCV [3, 5]: 0.5 to 1 µg/mL
- MIC (MRSA USA100): 16 µg/mL
- killing of S. aureus in biofilms (Log 10 CFU/peg) ([4]; alone or in combination with gentamicin, 24 h): efficiently kills; also recorded: bactericidal
- biofilm disrupting activity (residual OD562 nm) ([4]; used alone, Compound 14 at 4 μg/ml, TO at 8 μg/ml): superior biofilm disrupting activity; also recorded: can also disrupt biofilm formation
